The values that follow come from patent publication US12018016B2, “Aryl sulfonyl (hydroxy) piperidines as CCR6 inhibitors” (CHEMOCENTRYX, INC., priority 2021, dated 2024).

Each structure is given as a SMILES string.

For this assay, the target named is T1, human CCR6 (Homo sapiens, UniProt P51684).
T1 construct: expressed in transfected cells; host or cells: Ba/F3 cells (mouse pro-B line)
T1 sequence (P51684 1-374): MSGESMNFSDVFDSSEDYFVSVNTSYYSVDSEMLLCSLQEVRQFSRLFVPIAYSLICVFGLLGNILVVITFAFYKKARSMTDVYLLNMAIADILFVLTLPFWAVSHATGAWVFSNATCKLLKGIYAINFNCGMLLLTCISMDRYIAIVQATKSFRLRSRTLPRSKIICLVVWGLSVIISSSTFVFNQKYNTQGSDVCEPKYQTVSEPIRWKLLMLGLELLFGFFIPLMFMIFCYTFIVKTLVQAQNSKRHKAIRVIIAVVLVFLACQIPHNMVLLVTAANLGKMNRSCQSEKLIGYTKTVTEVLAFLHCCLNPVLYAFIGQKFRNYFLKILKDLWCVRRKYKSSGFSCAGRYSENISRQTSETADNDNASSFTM
The experiment in a line: Migration assay (chemotaxis, ChemoTX). It is filed as cell-based. The following applies: hCCR6-transfected Ba/F3 cells in human serum, migration to recombinant human CCL20 10 nM, 37° C. 45 minutes; read-out: Potency (IC50 value in the migration assay). The method, boiled down:
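Ba/F3 cells transfected with human CCR6 and butyrate-primed for 24 h were suspended at 4 million/ml in human serum with compound, serially diluted from a 1 μM final top concentration. Cells migrated through a 5-μm polycarbonate membrane toward 10 nM human CCL20 for 45 min at 37 °C. Migrated cells were quantified by CyQUANT fluorescence.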
For the compound `Nc1nnc2ccc(-c3ccc(S(=O)(=O)N4CC[C@@H](Nc5ccc(C(F)(F)F)cn5)[C@@H](O)C4)cc3)cn12` [Example 13, (3S,4R)-1-((4-(3-amino-[1,2,4]triazolo[4,3-a]pyridin-6-yl)phenyl)sulfonyl)-4-((5-(trifluoromethyl)pyridin-2-yl)amino)piperidin-3-ol], the IC50 was below 1 nM.
As to `O=C1NCc2cc(-c3ccc(S(=O)(=O)N4CC[C@@H](Nc5ccc(C(F)(F)F)cn5)[C@@H](O)C4)cc3)ccc2N1` [Example 14, 6-(4-(((3S,4R)-3-hydroxy-4-((5-(trifluoromethyl)pyridin-2-yl)amino)piperidin-1-yl)sulfonyl)phenyl)-3,4-dihydroquinazolin-2(1H)-one], the IC50 was below 1 nM.
In the case of `COc1cc(-c2ccc(S(=O)(=O)N3CC[C@@H](Nc4ccc(C(F)(F)F)cn4)[C@@H](O)C3)cc2)cc2c1NC(=O)C2` [Example 15, 5-(4-(((3S,4R)-3-hydroxy-4-((5-(trifluoromethyl)pyridin-2-yl)amino)piperidin-1-yl)sulfonyl)phenyl)-7-methoxyindolin-2-one], the IC50 is below 1 nM.
Regarding `Cc1cc(-c2ccc(S(=O)(=O)N3CC[C@@H](Nc4ccc(C(F)(F)F)cn4)[C@@H](O)C3)cc2)cc2cn[nH]c12` [Example 16, (3S,4R)-1-((4-(7-methyl-1H-indazol-5-yl)phenyl)sulfonyl)-4-((5-(trifluoromethyl)pyridin-2-yl)amino)piperidin-3-ol], the IC50 is below 1 nM.
With `Cc1nc2[nH]ccc2cc1-c1ccc(S(=O)(=O)N2CC[C@@H](Nc3ccc(C(F)(F)F)cn3)[C@@H](O)C2)cc1` [Example 17, (3S,4R)-1-((4-(6-methyl-1H-pyrrolo[2,3-b]pyridin-5-yl)phenyl)sulfonyl)-4-((5-(trifluoromethyl)pyridin-2-yl)amino)piperidin-3-ol] the figure was 1 to 10 nM; with `NC(=O)c1ccnc(-c2ccc(S(=O)(=O)N3CC[C@@H](Nc4ccc(C(F)(F)F)cn4)[C@@H](O)C3)cc2)c1` [Example 18, 2-(4-(((3S,4R)-3-Hydroxy-4-((5-(trifluoromethyl)pyridin-2-yl)amino)piperidin-1-yl)sulfonyl)phenyl)isonicotinamide], 1 to 10 nM.
For `NC(=O)c1ncc(-c2ccc(S(=O)(=O)N3CC[C@@H](Nc4ccc(C(F)(F)F)cn4)[C@@H](O)C3)cc2)cc1N` [Example 19, 3-Amino-5-(4-(((3S,4R)-3-hydroxy-4-((5-(trifluoromethyl)pyridin-2-yl)amino)piperidin-1-yl)sulfonyl)phenyl)picolinamide] the value was 1 to 10 nM; for `Cc1cnc(C(N)=O)cc1-c1ccc(S(=O)(=O)N2CC[C@@H](Nc3ccc(C(F)(F)F)cn3)[C@@H](O)C2)cc1` [Example 20, 4-(4-(((3S,4R)-3-Hydroxy-4-((5-(trifluoromethyl)pyridin-2-yl)amino)piperidin-1-yl)sulfonyl)phenyl)-5-methylpicolinamide], below 1 nM; for `COc1cc(-c2ccc(S(=O)(=O)N3CC[C@@H](Nc4ccc(C(F)(F)F)cn4)[C@@H](O)C3)cc2)cc2cn[nH]c12` [Example 21, (3S,4R)-1-((4-(7-methoxy-1H-indazol-5-yl)phenyl)sulfonyl)-4-((5-(trifluoromethyl)pyridin-2-yl)amino)piperidin-3-ol], below 1 nM.
Take `O=S(=O)(c1ccc(-c2cnc3[nH]ccc3c2C(F)(F)F)cc1)N1CC[C@@H](Nc2ccc(C(F)(F)F)cn2)[C@@H](O)C1` [Example 22, (3S,4R)-1-((4-(4-(trifluoromethyl)-1H-pyrrolo[2,3-b]pyridin-5-yl)phenyl)sulfonyl)-4-((5-(trifluoromethyl)pyridin-2-yl)amino)piperidin-3-ol]: the IC50 is below 1 nM.
Take `O=S(=O)(c1ccc(-c2ccc3[nH]ncc3c2)cc1)N1CC[C@@H](Nc2ccc(C(F)(F)F)cn2)[C@@H](O)C1` [Example 23, (3S,4R)-1-((4-(1H-indazol-5-yl)phenyl)sulfonyl)-4-((5-(trifluoromethyl)pyridin-2-yl)amino)piperidin-3-ol]: the IC50 was below 1 nM.
For `Cc1cc2[nH]ncc2cc1-c1ccc(S(=O)(=O)N2CC[C@@H](Nc3ccc(C(F)(F)F)cn3)[C@@H](O)C2)cc1` [Example 25, (3S,4R)-1-((4-(6-methyl-1H-indazol-5-yl)phenyl)sulfonyl)-4-((5-(trifluoromethyl)pyridin-2-yl)amino)piperidin-3-ol] the value was 1 to 10 nM.
Take `Cc1c(-c2ccc(S(=O)(=O)N3CC[C@@H](Nc4ccc(C(F)(F)F)cn4)[C@@H](O)C3)cc2)ccc2[nH]ncc12` [Example 26, (3S,4R)-1-((4-(4-methyl-1H-indazol-5-yl)phenyl)sulfonyl)-4-((5-(trifluoromethyl)pyridin-2-yl)amino)piperidin-3-ol]: the IC50 was below 1 nM.
Consider `NC(=O)c1cncc(-c2ccc(S(=O)(=O)N3CC[C@@H](Nc4ccc(C(F)(F)F)cn4)[C@@H](O)C3)cc2)c1` [Example 27, 5-(4-(((3S,4R)-3-Hydroxy-4-((5-(trifluoromethyl)pyridin-2-yl)amino)piperidin-1-yl)sulfonyl)phenyl)nicotinamide], for which the IC50 lay within 1 to 10 nM.
Consider `NC(=O)c1ccc(-c2ccc(S(=O)(=O)N3CC[C@@H](Nc4ccc(C(F)(F)F)cn4)[C@@H](O)C3)cc2)cn1` [Example 28, 5-(4-(((3S,4R)-3-Hydroxy-4-((5-(trifluoromethyl)pyridin-2-yl)amino)piperidin-1-yl)sulfonyl)phenyl)picolinamide], for which the IC50 is below 1 nM.
Regarding `CC(C)(C)OC(=O)NCCn1cc(C#N)c2cc(-c3ccc(S(=O)(=O)N4CC[C@@H](Nc5ccc(C(F)(F)F)cn5)[C@@H](O)C4)cc3)cnc21` [Example 29, tert-Butyl (2-(3-cyano-5-(4-(((3S,4R)-3-hydroxy-4-((5-(trifluoromethyl)pyridin-2-yl)amino)piperidin-1-yl)sulfonyl)phenyl)-1H-pyrrolo[2,3-b]pyridin-1-yl)ethyl)carbamate], the IC50 was below 1 nM.
For `Nc1nc2ccc(-c3ccc(S(=O)(=O)N4CC[C@@H](Nc5ccc(C(F)(F)F)cn5)[C@@H](O)C4)cc3)cc2c(=O)[nH]1` [Example 30, 2-amino-6-(4-(((3S,4R)-3-hydroxy-4-((5-(trifluoromethyl)pyridin-2-yl)amino)piperidin-1-yl)sulfonyl)phenyl)quinazolin-4(3H)-one] the value was below 1 nM; for `NC(=O)c1cc(-c2ccc(S(=O)(=O)N3CC[C@@H](Nc4ccc(C(F)(F)F)cn4)[C@@H](O)C3)cc2)ccn1` [Example 31, 4-(4-(((3S,4R)-3-hydroxy-4-((5-(trifluoromethyl)pyridin-2-yl)amino)piperidin-1-yl)sulfonyl)phenyl)picolinamide], below 1 nM.
For `N#Cc1c[nH]c2ncc(-c3ccc(S(=O)(=O)N4CC[C@H](Nc5ccc(C(F)(F)F)cn5)[C@H](O)C4)cc3)cc12` [Example 32, 5-(4-(((3R,4S)-3-hydroxy-4-((5-(trifluoromethyl)pyridin-2-yl)amino)piperidin-1-yl)sulfonyl)phenyl)-1H-pyrrolo[2,3-b]pyridine-3-carbonitrile] the value was 1 to 10 nM; for `Cc1c(-c2ccc(S(=O)(=O)N3CC[C@@H](Nc4ccc(C#N)cn4)[C@@H](O)C3)cc2)cnc2[nH]ccc12` [Example 33, 6-[[(3S,4R)-3-hydroxy-1-[4-(4-methyl-1H-pyrrolo[2,3-b]pyridin-5-yl)phenyl]sulfonyl-4-piperidyl]amino]pyridine-3-carbonitrile], below 1 nM; for `N#Cc1ccc(N[C@@H]2CCN(S(=O)(=O)c3ccc(-c4cnc5[nH]cc(C#N)c5c4)cc3)C[C@@H]2O)nc1` [Example 34, 5-[4-[[(3S,4R)-4-[(5-cyano-2-pyridyl)amino]-3-hydroxy-1-piperidyl]sulfonyl]phenyl]-1H-pyrrolo[2,3-b]pyridine-3-carbonitrile], below 1 nM.
For the compound `Cc1c(-c2ccc(S(=O)(=O)N3CC[C@@H](Nc4ccc(C(F)(F)F)cn4)[C@@H](O)C3)cc2)ccc2[nH]nc(C#N)c12` [Example 35, 5-(4-(((3S,4R)-3-hydroxy-4-((5-(trifluoromethyl)pyridin-2-yl)amino)piperidin-1-yl)sulfonyl)phenyl)-4-methyl-1H-indazole-3-carbonitrile], the IC50 is below 1 nM.
`Cc1cc2[nH]nc(C#N)c2cc1-c1ccc(S(=O)(=O)N2CC[C@@H](Nc3ccc(C(F)(F)F)cn3)[C@@H](O)C2)cc1` [Example 36, 5-(4-(((3S,4R)-3-hydroxy-4-((5-(trifluoromethyl)pyridin-2-yl)amino)piperidin-1-yl)sulfonyl)phenyl)-6-methyl-1H-indazole-3-carbonitrile]: the IC50 is below 1 nM.
Take `N#Cc1ccc(N[C@@H]2CCN(S(=O)(=O)c3ccc(-c4ccnc(C(N)=O)c4)cc3)C[C@@H]2O)nc1` [Example 37, 4-(4-(((3S,4R)-4-((5-cyanopyridin-2-yl)amino)-3-hydroxypiperidin-1-yl)sulfonyl)phenyl)picolinamide]: the IC50 was below 1 nM.
For the compound `Nc1n[nH]c2ncc(-c3ccc(S(=O)(=O)N4CC[C@@H](Nc5ccc(C(F)(F)F)cn5)[C@@H](O)C4)cc3)cc12` [Example 38, (3S,4R)-1-((4-(3-amino-1H-pyrazolo[3,4-b]pyridin-5-yl)phenyl)sulfonyl)-4-((5-(trifluoromethyl)pyridin-2-yl)amino)piperidin-3-ol], the IC50 was below 1 nM.
